Experimental data reported in US9315546B2, “Growth hormone secretatogue receptor antagonists and uses thereof” (The Administrators of the Tulane Educational Fund, priority 2010, dated 2016).
Where “and” joins values, the source holds several entries; their conditions need not be identical. Equal entries are not always repeated. Where a SMILES comes first, the peptide text is derived from it. Where no end group is shown, it is not given here. [ ]: non-standard residue; d: D form. d2Nal = N[C@H](Cc1ccc2ccccc2c1)C(=O)O; βAla = NCCC(=O)O

Experiments:
[1] = molecular target: T1, human ghrelin receptor type 1a (GHS-R1a) (Homo sapiens, UniProt Q92847); assay: Receptor binding, displacement of radiolabelled ghrelin, HEK-293 cell membranes; conditions: for % INH, Ghrelin/GHS Antagonist Receptor Activity: concentration not given
T1 construct: expressed in transfected cells; host or cells: HEK-293 cells (membranes)

[2] = molecular target: T2, hypothalamic ghrelin receptor (Rattus norvegicus, UniProt O08725); assay: Spontaneous and ghrelin-stimulated GH secretion after icv ghrelin analogs in adult male rats; type: in vivo; design: from tissue; host or cells: whole animal (adult male rats); conditions: ghrelin analog 10 μg icv, 6-h sampling
Method: (§1) In vivo effects were measured on spontaneous and ghrelin-stimulated GH secrtion over a 6-h sampling period, and food intake monitored hourly over a 5-h period and body weight change over 24 h.

[3] = molecular target: T2, hypothalamic ghrelin receptor; assay: Food intake and body weight change after icv ghrelin analogs in adult male rats; type: in vivo; design: from tissue; host or cells: whole animal (adult male rats); conditions: ghrelin analog 10 μg icv, monitored hourly over 5 h
Method: as §1

[4] = molecular target: T3, Ghrelin/GHRP/GHS Receptor (Rattus norvegicus, UniProt O08725); assay: In vivo GH release in rat after i.v. peptide (serum GH by RIA)
Method: For the in vivo assay of GH Release in rat, immature female Sprague Dawley rats were obtained from Charles River from Wilmington, Mass. After arrival they were housed at 25° C. with a 14:10 h light:dark cycle. Water and Purina rat chow were available at libitum. Pups were weaned at 21 days of age.
Immature twenty six day old female Sprague Dawley rats, 3-6 rats per treatment dose, were pretreated with pentobarbital 20 minutes before iv injection of vehicle/peptide or peptide plus stimulator. Injection was made as a 0.1 ml solution. For the non-pentobarbital treated rat assay, peptides were administered iv into the tail vein of conscious rats. All animals were sacrificed by guillotine after iv peptide or vehicle. Trunk blood was collected at +10-15 minutes […], allowed to clot, centrifuged and serum stored until assayed for GH levels by RIA. The GH RIA reagents were distributed by the NIH. Control data was collected from rats treated with only the corresponding vehicle in the absence of peptide or stimulator. Control stimulated data was collected from rats treated with stimulator alone in the absence of any peptide.

[5] = molecular target: T3, Ghrelin/GHRP/GHS Receptor; assay: GH release from cell culture of pituitary cells; type: cell-based; design: After dispersion, the cells were collected by centrifugation, wash with DMEM and placed into culture well; endogenous in cells; host or cells: dispersed primary rat pituitary cells, 4 days in culture
Method: In vitro GH Release-Female rats of the CD-1 strain were housed in a constant temperature room at 24° C. with 14 h light and 10 h darkness. The rats were fed Purina Rat chow and water at libitum. All studies were started between 0800-1000 hours. Pituitaries of mature female Sprague Dawley rats were rapidly removed after decapitation, neurointermediate lobe discarded and then placed in a pH 7.4 buffer. The pituitaries were cut into ˜3-mm pieces and then transferred to a flask containing HEPS buffer with trypsin and incubated at 37° C. Cells were triturated several times during this period. After dispersion, the cells were collected by centrifugation, wash with DMEM and placed into culture well. Cell cultures were maintained for 4 days at 37° with 8% CO2 added to the incubator atmosphere. After 4 days in culture, cells were washed with lactated Ringer's solution adjusted to pH 7.2-7.4 and then vehicle, peptide alone or peptide plus stimulator was added to media. Incubation time was 60-120 minutes after which media was removed from each well for GH determination. The GH RIA reagents were distributed by the NIH. Control data was collected from cell cultures treated with only the corresponding vehicle in the absence of peptide or stimulator. Control stimulated data was collected from cell cultures treated with stimulator alone in the absence of any peptide.

[6] = Table 3, peptide alone 3 μg i.v.
[7] = Table 3, peptide alone 10 μg i.v.
[8] = Table 3, peptide alone 30 μg i.v.
[9] = Table 3, peptide alone 100 μg i.v.
[10] = Table 5, peptide alone 10 μg i.v.
[11] = Table 5, peptide alone 30 μg i.v.
[12] = Pentobarbital Rats, peptide alone 30 μg i.v.
[13] = Pentobarbital Rats, peptide alone 100 μg i.v.
[14] = Table 5, peptide alone 1 μg i.v.

T1 sequence (Q92847 whole entry): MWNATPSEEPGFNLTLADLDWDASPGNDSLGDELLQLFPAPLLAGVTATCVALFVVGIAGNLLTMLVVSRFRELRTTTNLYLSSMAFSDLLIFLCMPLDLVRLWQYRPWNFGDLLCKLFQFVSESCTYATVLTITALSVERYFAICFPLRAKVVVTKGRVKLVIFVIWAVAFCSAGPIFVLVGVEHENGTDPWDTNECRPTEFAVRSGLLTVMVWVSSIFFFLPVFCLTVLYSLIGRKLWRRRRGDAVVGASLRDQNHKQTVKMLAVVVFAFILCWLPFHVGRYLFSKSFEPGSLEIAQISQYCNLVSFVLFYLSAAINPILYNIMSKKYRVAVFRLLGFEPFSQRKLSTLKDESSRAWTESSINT
T3 sequence (O08725 whole entry): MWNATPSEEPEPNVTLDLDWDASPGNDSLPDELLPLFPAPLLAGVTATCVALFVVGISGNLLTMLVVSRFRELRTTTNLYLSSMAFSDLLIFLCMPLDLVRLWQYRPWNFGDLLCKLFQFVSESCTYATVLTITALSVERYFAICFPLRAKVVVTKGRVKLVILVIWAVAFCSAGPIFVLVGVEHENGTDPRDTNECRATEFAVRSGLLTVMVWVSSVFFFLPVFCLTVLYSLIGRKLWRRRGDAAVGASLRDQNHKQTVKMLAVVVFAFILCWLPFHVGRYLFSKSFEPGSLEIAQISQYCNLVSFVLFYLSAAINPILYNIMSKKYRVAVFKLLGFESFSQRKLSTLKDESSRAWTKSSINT
T2 sequence (O08725 whole entry): as above

CSCC[C@H](NC(=O)CN)C(=O)N[C@@H](C)C(=O)N[C@H](C)C(=O)N[C@H](Cc1ccc2ccccc2c1)C(=O)N[C@@H](C)C(=O)N[C@@H](Cc1c[nH]c2ccccc12)C(=O)N[C@H](Cc1ccccc1)C(=O)N[C@@H](CCCCN)C(N)=O [#5, GlyMetAlaDAlaDβNalAlaTrpDPheLysNH2] (HELM PEPTIDE1{G.M.A.[dA].[O=C([C@@H](Cc1ccc2ccccc2c1)N[*:1])[*:2]].A.W.[dF].K.[am]}$$$$V2.0; N-terminus assumed)
IC50 [1]: 296 nM | Ki [1]: 166 nM | % INH, Ghrelin/GHS Antagonist Receptor Activity [1]: 94%

CSCC[C@H](NC(=O)CN)C(=O)N[C@@H](C)C(=O)N[C@H](C)C(=O)N[C@H](Cc1ccc2ccccc2c1)C(=O)N[C@H](CCCCN)C(=O)N[C@@H](Cc1c[nH]c2ccccc12)C(=O)N[C@H](Cc1ccccc1)C(=O)N[C@@H](CCCCN)C(N)=O [#6a, GlyMetAlaDAlaDβNalDLysTrpDPheLysNH2] (HELM PEPTIDE1{G.M.A.[dA].[O=C([C@@H](Cc1ccc2ccccc2c1)N[*:1])[*:2]].[dK].W.[dF].K.[am]}$$$$V2.0; N-terminus assumed)
IC50 [1]: 707 nM | Ki [1]: 395 nM | % INH, Ghrelin/GHS Antagonist Receptor Activity [1]: 89%

CSCC[C@H](NC(=O)CN)C(=O)N[C@@H](C)C(=O)NCC(=O)N[C@@H](CO)C(=O)N[C@@H](Cc1c[nH]c2ccccc12)C(=O)N[C@@H](Cc1ccccc1)C(=O)N[C@@H](CC(C)C)C(=O)N[C@@H](CO)C(=O)N1CCC[C@H]1C(=O)N[C@@H](CCC(=O)O)C(=O)N[C@@H](Cc1c[nH]cn1)C(=O)N[C@@H](CCC(N)=O)C(=O)N[C@@H](CCCNC(=N)N)C(=O)N[C@H](C(=O)N[C@@H](CCC(N)=O)C(=O)N[C@@H](CCC(N)=O)C(=O)N[C@@H](CCCNC(=N)N)C(=O)N[C@@H](CCCCN)C(=O)N[C@@H](CCC(=O)O)C(=O)N[C@@H](CO)C(=O)N[C@@H](CCCCN)C(=O)N[C@@H](CCCCN)C(=O)N1CCC[C@H]1C(=O)N1CCC[C@H]1C(=O)N[C@@H](C)C(=O)N[C@@H](CCCCN)C(=O)N[C@@H](CC(C)C)C(=O)N[C@@H](CCC(N)=O)C(=O)N1CCC[C@H]1C(=O)N[C@@H](CCCNC(=N)N)C(=O)O)C(C)C [#7]
IC50 [1]: 284 nM | Ki [1]: 159 nM | % INH, Ghrelin/GHS Antagonist Receptor Activity [1]: 86%

Gly-Met-Ala-Gly-Ser-(Dap-Palmityl)-Phe-Leu-Ser-Pro-Glu-His-NH2 (GMAGS[Dap(palmityl)]FLSPEH-NH2) [#6]
spontaneous growth hormone secretion / plasma GH levels [2]: did not inhibit | (cumulative) food intake [3]: did not inhibit GH secretion or decreased food intake

[d2Nal]AW[dF]L-NH2 [7-DβNal-Ala-Trp-DPhe-Leu-NH2]
Unstimulated Basal GH release [4, 6]: 253 ± 79 ng/mL | Unstimulated Basal GH release [4, 7]: 277 ± 43 ng/mL | Unstimulated Basal GH release [4, 8]: 347 ± 66 ng/mL | Unstimulated Basal GH release [4, 9]: 645 ± 117 ng/mL

[dA]A[dA][dW]FK-NH2 [6-DAla-Ala-DAla-DTrp-Phe-Lys-NH2]
Unstimulated Basal GH release [4, 10]: 228 ± 76 ng/mL | Unstimulated Basal GH release [4, 11]: 172 ± 14 ng/mL | Unstimulated Basal GH release ([4]; Table 5, peptide alone 100 μg i.v.): 153 ± 45 ng/mL

[dA][d2Nal]AT[dT]K-NH2 [4-DAla-DβNal-Ala-Thr-DThr-Lys-NH2]
Unstimulated Basal GH release [4, 6]: 255 ± 38 ng/mL | Unstimulated Basal GH release [4, 8]: 288 ± 31 ng/mL | Unstimulated Basal GH release [4, 9]: 386 ± 57 ng/mL

[dA][d2Nal]AW[dF]K-NH2 [reference compound]
Stimulated Control GH release (stimulator alone) ([5]; Table 6, DAla-DβNal-Ala-Trp-DPhe-Lys-NH2 10 ng/ml): 2420 ± 0 ng/mL and 2811 ± 229 ng/mL and 2385 ± 8 ng/mL | Stimulated Control GH release (stimulator alone) ([5]; Table 9, DAla-DβNal-Ala-Trp-DPhe-Lys-NH2 1 ng/ml): 1232 ± 34 ng/mL | Stimulated Control GH release (stimulator alone) ([5]; Table 10, DAla-DβNal-Ala-Trp-DPhe-Lys-NH2 1 ng/ml): 905 ± 6 ng/mL and 1153 ± 36 ng/mL and 1216 ± 26 ng/mL and 1461 ± 58 ng/mL and 1016 ± 18 ng/mL and 859 ± 4 ng/mL and 1060 ± 24 ng/mL | Stimulated Control GH release (stimulator alone) ([5]; Table 11, DAla-DβNal-Ala-Trp-DPhe-Lys-NH2 1 ng/ml): 905 ± 6 ng/mL and 947 ± 11 ng/mL and 947 ± 33 ng/mL and 1016 ± 18 ng/mL | Stimulated Control GH release (stimulator alone) ([4]; DAla-DβNal-Ala-Trp-DPhe-Lys-NH2 0.3 μg, rat, Table 2): 1412 ± 400 ng/mL and 2253 ± 252 ng/mL | Stimulated Control GH release (stimulator alone) ([4]; DAla-DβNal-Ala-Trp-DPhe-Lys-NH2 1 μg, rat, Table 2): 3214 ± 276 ng/mL and 3105 ± 429 ng/mL and 2406 ± 288 ng/mL and 2825 ± 134 ng/mL and 3104 ± 429 ng/mL | Stimulated Control GH release (stimulator alone) ([4]; Table 4, Non-Pentobarbital Rats, DAla-DβNal-Ala-Trp-DPhe-Lys-NH2 10 μg): 72 ± 9 ng/mL | Stimulated Control GH release (stimulator alone) ([4]; Table 4, Pentobarbital Rats, DAla-DβNal-Ala-Trp-DPhe-Lys-NH2 0.3 μg): 5052 ± 511 ng/mL | Stimulated Control GH release (stimulator alone) ([4]; Table 4, Pentobarbital Rats, DAla-DβNal-Ala-Trp-DPhe-Lys-NH2 1 μg): 4950 ± 98 ng/mL

[dA][d2Nal][dA][dW]FK-NH2 [9-DAla-DβNal-DAla-DTrp-Phe-Lys-NH2]
Unstimulated Basal GH release ([4]; Table 3, peptide alone 1 μg i.v.): 184 ± 55 ng/mL | Unstimulated Basal GH release [4, 6]: 467 ± 201 ng/mL | Unstimulated Basal GH release [4, 7]: 244 ± 107 ng/mL

[dA][d2Nal][dK][dW]FK-NH2 [3-DAla-DβNal-DLys-DTrp-Phe-Lys-NH2]
Stimulated GH release (P + S) ([4]; Pentobarbital Rats, peptide 30 μg i.v. + stimulator 1 μg): 2864 ± 828 ng/mL | Stimulated GH release (P + S) ([4]; Pentobarbital Rats, peptide 100 μg i.v. + stimulator 1 μg): 1198 ± 114 ng/mL | Unstimulated GH release (−S) [4, 12]: 323 ± 50 ng/mL | Unstimulated GH release (−S) [4, 13]: 812 ± 6 ng/mL | Stimulated GH release ([4]; peptide antagonist 30 μg i.v. + stimulator 1 μg): 2884 ± 828 ng/mL | Stimulated GH release ([4]; peptide antagonist 100 μg i.v. + stimulator 1 μg): 1198 ± 114 ng/mL

[dK][d2Nal]AW[dF]K-NH2 [1-DLys-DβNal-Ala-Trp-DPhe-Lys-NH2]
Stimulated GH release (P + S) ([4]; Pentobarbital Rats, peptide 3 μg i.v. (grid head; alignment uncertain) + stimulator 0.3 μg): 5232 ± 346 ng/mL | Stimulated GH release (P + S) ([4]; Pentobarbital Rats, peptide 10 μg i.v. (grid head; alignment uncertain) + stimulator 0.3 μg): 3404 ± 396 ng/mL | Stimulated GH release (P + S) ([4]; Pentobarbital Rats, peptide 30 μg i.v. + stimulator 0.3 μg): 704 ± 169 ng/mL | Unstimulated GH release (−S) ([4]; Pentobarbital Rats, peptide alone 3 μg i.v. (grid head; alignment uncertain)): 616 ± 169 ng/mL | Unstimulated GH release (−S) ([4]; Pentobarbital Rats, peptide alone 10 μg i.v. (grid head; alignment uncertain)): 847 ± 17 ng/mL | Unstimulated GH release (−S) [4, 12]: 629 ± 146 ng/mL | Unstimulated GH release (−S) [4, 13]: 228 ± 45 ng/mL

[βAla]W[dA][dW]F-NH2 [10-βAla-Trp-DAla-DTrp-Phe-NH2]
Unstimulated Basal GH release [4, 8]: 341 ± 46 ng/mL | Unstimulated Basal GH release [4, 9]: 636 ± 171 ng/mL

inip-Trp-Trp-Phe-NH2 [10-inip-Trp-Trp-Phe-NH2]
Unstimulated Basal GH release [4, 10]: 69 ± 3 ng/mL | Unstimulated Basal GH release [4, 11]: 81 ± 10 ng/mL

αAbu-DTrp-DTrp-Orn-NH2 [4-αAbu-DTrp-DTrp-Orn-NH2]
Unstimulated Basal GH release [4, 14]: 85 ± 25 ng/mL | Unstimulated Basal GH release [4, 10]: 88 ± 18 ng/mL | Unstimulated Basal GH release [4, 11]: 50 ± 6 ng/mL

αγAbu-DTrp-DTrp-Lys-NH2 [2-αγAbu-DTrp-DTrp-Lys-NH2]
Unstimulated Basal GH release [4, 14]: 57 ± 7 ng/mL | Unstimulated Basal GH release ([4]; Table 5, peptide alone 3 μg i.v.): 84 ± 18 ng/mL | Unstimulated Basal GH release [4, 10]: 62 ± 15 ng/mL

αγAbu-DTrp-DTrp-Orn-NH2 [3-αγAbu-DTrp-DTrp-Orn-NH2]
Unstimulated Basal GH release [4, 14]: 118 ± 16 ng/mL | Unstimulated Basal GH release [4, 10]: 126 ± 27 ng/mL | Unstimulated Basal GH release [4, 11]: 79 ± 31 ng/mL

αγAbu-DTrp-DTrp-Ser-NH2 [1-αγAbu-DTrp-DTrp-Ser-NH2]
Unstimulated Basal GH release [4, 14]: 80 ± 35 ng/mL | Unstimulated Basal GH release [4, 10]: 62 ± 15 ng/mL | Unstimulated Basal GH release [4, 11]: 67 ± 8 ng/mL
